Strand notation (5' to 3'): a small letter for the sugar, then the base; units joined by * are phosphorothioate-linked, units joined directly phosphodiester-linked; [ ] holds rarer units or linkages, { } end groups; capitals alone tell only the bases. e = 2'-O-(2-methoxyethyl) (MOE); [5mC] = 5-methylcytosine; d = 2'-deoxy (DNA)
Experiments:
human Factor 7 mRNA [1] = experiment: Dose-dependent antisense inhibition of human Factor 7 in HepB3 cells, electroporation; assay type: cell-based
Procedure, shortened: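 HepB3 cells, 20,000/well, electroporated with gapmers at 3.125–100 μM; about 16 h treatment. Factor 7 mRNA by qRT-PCR with primer probe set RTS 2927, normalized to RIBOGREEN total RNA; percent inhibition versus untreated cells.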

human Factor 7 mRNA [2] = experiment: Antisense inhibition of human Factor 7 mRNA in HepB3 cells, 50 nM antisense oligonucleotide, lipofectin; assay type: cell-based; details: lipofectin, approximately 24 hours
Procedure, shortened: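 HepB3 cells were transfected by lipofectin with 50 nM antisense oligonucleotide and harvested after about 24 h. Factor 7 mRNA was measured by real-time RT-PCR (primer probe set RTS 2927 in some runs), normalized to RIBOGREEN total RNA, and reported as percent inhibition versus untreated control.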

[3] = 3.125 μM, approx. 16 hours (Table 15, Example 7)
[4] = 3.125 μM, approx. 16 hours (Table 16, Example 8 confirmation)
[5] = 6.25 μM, approx. 16 hours (Table 15, Example 7)
[6] = 6.25 μM, approx. 16 hours (Table 16, Example 8 confirmation)
[7] = 12.5 μM, approx. 16 hours (Table 15, Example 7)
[8] = 12.5 μM, approx. 16 hours (Table 16, Example 8 confirmation)
[9] = 25 μM, approx. 16 hours (Table 15, Example 7)
[10] = 25 μM, approx. 16 hours (Table 16, Example 8 confirmation)
[11] = 50 μM, approx. 16 hours (Table 15, Example 7)
[12] = 50 μM, approx. 16 hours (Table 16, Example 8 confirmation)
[13] = 100 μM, approx. 16 hours (Table 15, Example 7)
[14] = 100 μM, approx. 16 hours (Table 16, Example 8 confirmation)
[15] = Table 1, 50 nM, relative to untreated control cells
[16] = 50 nM antisense oligonucleotide, Factor 7 mRNA by real-time RT-PCR (RTS 2927), relative to untreated control

With “407939 (antisense eT*eG*e[5mC]*eA*eG*d[5mC]*d[5mC]*d[5mC]*dG*dG*d[5mC]*dA*d[5mC]*d[5mC]*d[5mC]*eA*eG*e[5mC]*eG*eA) [compound 407939]” the “percent inhibition of Factor 7 mRNA, relative to untreated control cells” value (human Factor 7 mRNA [1]; [3]) was 18%, the “percent inhibition of Factor 7 mRNA, relative to untreated control cells” value (human Factor 7 mRNA [1]; [4]) was 35% and the “percent inhibition of Factor 7 mRNA, relative to untreated control cells” value (human Factor 7 mRNA [1]; [5]) was 28%. The “percent inhibition of Factor 7 mRNA, relative to untreated control cells” value (human Factor 7 mRNA [1]; [6]) was 60%, the “percent inhibition of Factor 7 mRNA, relative to untreated control cells” value (human Factor 7 mRNA [1]; [7]) was 42% and the “percent inhibition of Factor 7 mRNA, relative to untreated control cells” value (human Factor 7 mRNA [1]; [8]) was 60%. The “percent inhibition of Factor 7 mRNA, relative to untreated control cells” value (human Factor 7 mRNA [1]; [9]) was 56%, the “percent inhibition of Factor 7 mRNA, relative to untreated control cells” value (human Factor 7 mRNA [1]; [10]) was 73% and the “percent inhibition of Factor 7 mRNA, relative to untreated control cells” value (human Factor 7 mRNA [1]; [11]) was 68%. For the same substance, the “percent inhibition of Factor 7 mRNA, relative to untreated control cells” value (human Factor 7 mRNA [1]; [12]) was 81%, the “percent inhibition of Factor 7 mRNA, relative to untreated control cells” value (human Factor 7 mRNA [1]; [13]) was 82% and the “percent inhibition of Factor 7 mRNA, relative to untreated control cells” value (human Factor 7 mRNA [1]; [14]) was 83%. The “% Inhibition” value (human Factor 7 mRNA [2]; [15]) was 93% and the “% Inhibition” value (human Factor 7 mRNA [2]; [16]) was 76%.

In the case of “407935 (antisense eA*eT*eG*e[5mC]*eA*dT*dG*dG*dT*dG*dA*dT*dG*d[5mC]*dT*eT*e[5mC]*eT*eG*eA) [compound 407935]”, the “percent inhibition of Factor 7 mRNA, relative to untreated control cells” value (human Factor 7 mRNA [1]; [3]) is reported as 37%, the “percent inhibition of Factor 7 mRNA, relative to untreated control cells” value (human Factor 7 mRNA [1]; [4]) is reported as 63% and the “percent inhibition of Factor 7 mRNA, relative to untreated control cells” value (human Factor 7 mRNA [1]; [5]) is reported as 47%. For the same substance, the “percent inhibition of Factor 7 mRNA, relative to untreated control cells” value (human Factor 7 mRNA [1]; [6]) was 79%, the “percent inhibition of Factor 7 mRNA, relative to untreated control cells” value (human Factor 7 mRNA [1]; [7]) was 67% and the “percent inhibition of Factor 7 mRNA, relative to untreated control cells” value (human Factor 7 mRNA [1]; [8]) was 84%. The “percent inhibition of Factor 7 mRNA, relative to untreated control cells” value (human Factor 7 mRNA [1]; [9]) was 73%, the “percent inhibition of Factor 7 mRNA, relative to untreated control cells” value (human Factor 7 mRNA [1]; [10]) was 90% and the “percent inhibition of Factor 7 mRNA, relative to untreated control cells” value (human Factor 7 mRNA [1]; [11]) was 80%. For the same substance, the “percent inhibition of Factor 7 mRNA, relative to untreated control cells” value (human Factor 7 mRNA [1]; [12]) was 90%, the “percent inhibition of Factor 7 mRNA, relative to untreated control cells” value (human Factor 7 mRNA [1]; [13]) was 87% and the “percent inhibition of Factor 7 mRNA, relative to untreated control cells” value (human Factor 7 mRNA [1]; [14]) was 91%. The “% Inhibition” value (human Factor 7 mRNA [2]; [15]) was 94%, the “% Inhibition” value (human Factor 7 mRNA [2]; Table 13 (microwalk), 50 nM) was 79% and the “% Inhibition” value (human Factor 7 mRNA [2]; [16]) was 72%.

From patent US9029337B2, “Modulation of factor 7 expression” (Isis Pharmaceuticals, Inc., priority 2007, dated 2015)
